In general, IC50 refers to the concentration needed to halve the response being measured. For orientation: Ki means a measure of affinity in units of concentration, obtained from inhibition or displacement. As usually defined, the Km is the concentration of substrate that gives half-maximal velocity. By Vmax is commonly meant the rate approached at saturating substrate. As usually defined, the kcat is the maximal rate divided by the concentration of active sites. Usually kcat/Km stands for the second-order rate constant that governs catalysis at low substrate concentration.

Five molecules from PMC4906895, “Clonorchis sinensis omega-class glutathione transferases play major roles in the protection of the reproductive system during maturation and the response to oxidative stress” (Parasites & Vectors, 2016) can be followed below.

Where two headings read alike, the source gives them in different places.

Series [1] deals with T1, Clonorchis sinensis omega-class glutathione transferase 1 (CsGSTo1) (Clonorchis sinensis, UniProt A0A192IBN1).
T1 construct: full-length recombinant (246 amino acids), His-tag removed; GenBank KX163088
T1 sequence (A0A192IBN1 1-246): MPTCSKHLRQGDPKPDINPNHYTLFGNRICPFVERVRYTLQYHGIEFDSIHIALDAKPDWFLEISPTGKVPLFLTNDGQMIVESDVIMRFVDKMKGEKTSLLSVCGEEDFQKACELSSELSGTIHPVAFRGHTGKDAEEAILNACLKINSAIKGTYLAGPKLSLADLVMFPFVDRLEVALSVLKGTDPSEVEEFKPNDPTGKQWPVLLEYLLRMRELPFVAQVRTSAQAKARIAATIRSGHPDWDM
Briefly: biochemical. The arrangement: DHAR activity inhibition of recombinant CsGSTo, absorbance at 265 nm; Ki from Lineweaver-Burk plots. The protocol: (§1) We determined the inhibition mode of CsGSTos employing SHG and the anthelminthic drug praziquantel (PZQ; Shinpoong, Seoul, Korea). rCsGSTos (each 100 ng) were preincubated with Dulbecco’s PBS supplemented with 10–1,000 μM PZQ or 10–500 nM SHG for 2 min, after which the reaction was initiated by adding 1 mM GSH and 1 mM DHA. The increase in absorbance of the resulting […] was recorded spectrophotometrically at 265 nm. A set of reactions under identical conditions was done for each inhibitor concentration and for controls. To examine the inhibition mode of the specific active sites, rCsGSTos were preincubated with saturating concentrations of GSH (5 mM) for 2 min before conjugating reaction with varying concentrations of DHA (0.01–5 mM). […] All measurements were independently done in triplicate. Data were analyzed by Lineweaver-Burk plots. GST activity was spectrophotometrically determined employing a panel of substrates (Sigma-Aldrich); 1-chloro-2,4-dinitrobenzene (CDNB; pH 6.5, 340 nm), 1,2-dichloro-4-nitrobenzene (DCNB; pH 7.5, 345 nm), [compound left out] (4-NBC; pH 6.5, 310 nm), [compound left out] acetate (4-NPA; pH 7.0, 400 nm), 4-hydroxy nonenal (pH 7.5, 340 nm), cumene hydroperoxide (CHP; pH 6.5, 340 nm) and ethacrynic acid (pH 7.5, 340 nm). The reactions were recorded for 5 min at 25 °C in 100 mM potassium phosphate buffer (pH 7.2, 200 μl) containing each 4 mM substrate and 4 mM GSH. The formation of ascorbate by the glutathione-dependent DHAR was detected in potassium phosphate buffer (50 mM, pH 7.2) supplemented with 1 mM GSH and 0.25 mM dehydroascorbate (DHA) at 265 nm. Thioltransferase activity was assayed using hydroxylethyl disulfide (HEDS, 2 mM) in potassium phosphate buffer (50 mM, pH 7.2) containing 0.2 mM NADPH, 0.5 mM GSH and 0.5 units of glutathione reductase for 2 min at 340 nm. One unit of enzyme activity was defined as the amount of enzyme that catalyzed the formation of one micromole of product per min in the presence of respective substrates. Vmax and appKm were determined by one site saturation assays in ranges of 0.01–5 mM DHA with 5 mM GSH (saturating concentration). We also used variable concentrations of GSH ranging from 0.01–5.0 mM with 5 mM DHA (saturating concentration). Enzyme activity was monitored by changes of absorbance and was converted to specific activity using a molar extinction coefficient (Δε = 5.3). Non-enzymatic reaction was concomitantly monitored and subtracted from the entire reaction rate. All enzyme assays were independently performed in triplicate at 25 °C. Data were analyzed by best fit algorithm in SigmaPlot10.0.1 (Systat, San Diego, CA, USA). […] SHG might act via nucleophilic attack of the active site cysteine on the cysteinyl sulfur of the SHG to form a mixed disulfide with the DHA/GSH moiety with high affinity. […] PZQ might bind to a site other than the active- and glutathione-binding sites and act allosterically. We determined IC50 values of rCsGSTos against SHG and PZQ at a saturating concentration (IC50SC).

The target in series [2] is T2, Clonorchis sinensis omega-class glutathione transferase 2 (CsGSTo2) (Clonorchis sinensis, UniProt G7YE46).
T2 construct: gene CLF_105746; full-length recombinant (223 amino acids), His-tag removed; GenBank KX163089
T2 sequence (G7YE46 1-223): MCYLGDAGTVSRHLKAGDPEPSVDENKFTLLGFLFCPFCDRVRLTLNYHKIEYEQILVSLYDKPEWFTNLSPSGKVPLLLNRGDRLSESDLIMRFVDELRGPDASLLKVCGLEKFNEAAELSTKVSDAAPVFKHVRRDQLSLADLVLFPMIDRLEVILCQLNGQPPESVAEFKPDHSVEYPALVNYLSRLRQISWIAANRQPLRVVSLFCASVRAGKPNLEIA
Briefly: biochemical. Also on record: DHAR activity inhibition of recombinant CsGSTo, absorbance at 265 nm; Ki from Lineweaver-Burk plots. To be noted: for Ki: non-competitive. The protocol: as §1

The target of series [3] is T2, Clonorchis sinensis omega-class glutathione transferase 2 (CsGSTo2). Briefly: spectrophotometric GST activity of purified enzyme (specific activity). It counts as biochemical.
The target of series [4] is T1, Clonorchis sinensis omega-class glutathione transferase 1 (CsGSTo1). The description is as above. Type of series: biochemical.
Substrate in series [5]: O=C1O[C@H]([C@@H](O)CO)C(=O)C1=O
In words: steady-state DHAR kinetics of purified enzyme (apparent Km). It counts as biochemical, Clonorchis sinensis. Particulars: GSH.

In the case of `O=C(C1CCCCC1)N1CC(=O)N2CCc3ccccc3C2C1` (centres unmarked) [PZQ, praziquantel], the IC50 worked out at 108.4 ± 0.8 µM in series [1] and 116.8 ± 0.7 µM in series [2]. Moreover, the Ki turned out to be 46.8 µM in series [1] (ligand binding site (varied GSH), non-competitive); 44.1 µM in series [1] (specific active site (varied DHA), non-competitive); 42.8 µM in series [2] (ligand binding site (varied GSH)); 38.2 µM in series [2] (specific active site (varied DHA)).
Take `O=[N+]([O-])c1ccc(CCl)cc1` [4-NBC, 4-nitrobenzyl chloride]: the “Specific activity (μmol/min/mg) / rGSTo2” value in series [3] turned out to be 0.91 ± 0.24 µmol/min/mg. In addition, the “Specific activity (μmol/min/mg) / rGSTo1” value in series [4] turned out to be 1.42 ± 0.09 µmol/min/mg.
As to `CCCCCCSC[C@H](NC(=O)CC[C@H](N)C(=O)O)C(=O)NCC(=O)O` [SHG, S-hexylglutathione], the Ki in series [1] came to 0.00063 µM.

B1: Clonorchis sinensis omega-class glutathione transferase 1 (CsGSTo1) (Clonorchis sinensis) (protein)
chain: T1 sequence (A0A192IBN1 1-246)
notes: full-length recombinant (246 amino acids), His-tag removed; GenBank KX163088
In the case of B1, in series [5], the Km is 0.21 ± 0.02 mM, the Vmax was found to be 1.16 ± 0.02 µmol/min/mg, the kcat stood at 0.48 s⁻¹ and the kcat/Km amounted to 2290 s⁻¹ M⁻¹.

B2: Clonorchis sinensis omega-class glutathione transferase 2 (CsGSTo2) (Clonorchis sinensis) (protein)
chain: T2 sequence (G7YE46 1-223)
notes: full-length recombinant (223 amino acids), His-tag removed; GenBank KX163089
Consider B2, for which, in series [5], the Km amounted to 0.17 ± 0.02 mM, the Vmax amounted to 1.08 ± 0.02 µmol/min/mg, the kcat was 0.43 s⁻¹ and the catalytic efficiency (kcat/Km) turned out to be 2530 s⁻¹ M⁻¹.
